ChEMBL document CHEMBL5316287 (J Med Chem, 2023)

Key:
[1] = Toxicity in castrated NSG mouse xenografted with human VCaP cells assessed as mortality at 0.3 to 3 mg/kg,po qd for 33 days consecutively; assay type: organism-based; conditions: in vivo, 792 h, dose 0.3-3 mg/kg, time 33 day
[2] = target: Histone acetyltransferase p300 (Homo sapiens, UniProt Q09472); test: Inhibition of EP300 in human LK2 cells assessed as reduction in intracellular H3K27 acetylation incubated for 3 hrs by chemiluminescence based ELISA; assay type: cell-based
[3] = 1-Octanol/PBS partition coefficient, logD of the compound at pH 7.4 incubated for 30 mins by shake flask technique based HPLC-LC/MS analysis; assay type: physicochemical
[4] = Metabolic stability in mouse liver microsomes assessed as intrinsic clearance at 1 uM; assay type: ADME, Microsome
[5] = Metabolic stability in human liver microsomes assessed as intrinsic clearance at 1 uM; assay type: ADME, Microsome
[6] = AUC in BALB/cAnNCrlCrlj mouse at 10 mg/kg,po; assay type: ADME, organism-based; design: dose 10 mg/kg, route po; conditions: in vivo
[7] = Unbound AUC in BALB/cAnNCrlCrlj mouse at 10 mg/kg,po; assay type: ADME, organism-based; conditions: in vivo
[8] = Cmax in BALB/cAnNCrlCrlj mouse at 10 mg/kg,po; assay type: ADME, organism-based; design: dose 10 mg/kg, route po; conditions: in vivo
[9] = Half life in BALB/cAnNCrlCrlj mouse at 10 mg/kg,po; assay type: ADME, organism-based; conditions: in vivo
[10] = Oral bioavailability in BALB/cAnNCrlCrlj mouse at 10 mg/kg; assay type: ADME, organism-based; conditions: in vivo, po, 10 mg/kg
[11] = Volume of distribution at steady state in BALB/cAnNCrlCrlj mouse at 1 mg/kg,iv administered as DMA/Tween80/saline (1:1:8 ratio) solution; assay type: ADME, organism-based; conditions: in vivo, read-out: Vdss
[12] = Unbound clearance in BALB/cAnNCrlCrlj mouse at 1 mg/kg,iv administered as DMA/Tween80/saline (1:1:8 ratio) solution; assay type: ADME, organism-based; conditions: in vivo
CREB-binding protein = CREB-binding protein (Homo sapiens, UniProt Q92793); test: Inhibition of CBP (unknown origin) biotinylated H4 (1 to 25)-GSGSK peptide as substrate incubated for 1 hr in presence of acetyl-coA by AlphaLISA assay
Chain of CREB-binding protein (Q92793 whole entry): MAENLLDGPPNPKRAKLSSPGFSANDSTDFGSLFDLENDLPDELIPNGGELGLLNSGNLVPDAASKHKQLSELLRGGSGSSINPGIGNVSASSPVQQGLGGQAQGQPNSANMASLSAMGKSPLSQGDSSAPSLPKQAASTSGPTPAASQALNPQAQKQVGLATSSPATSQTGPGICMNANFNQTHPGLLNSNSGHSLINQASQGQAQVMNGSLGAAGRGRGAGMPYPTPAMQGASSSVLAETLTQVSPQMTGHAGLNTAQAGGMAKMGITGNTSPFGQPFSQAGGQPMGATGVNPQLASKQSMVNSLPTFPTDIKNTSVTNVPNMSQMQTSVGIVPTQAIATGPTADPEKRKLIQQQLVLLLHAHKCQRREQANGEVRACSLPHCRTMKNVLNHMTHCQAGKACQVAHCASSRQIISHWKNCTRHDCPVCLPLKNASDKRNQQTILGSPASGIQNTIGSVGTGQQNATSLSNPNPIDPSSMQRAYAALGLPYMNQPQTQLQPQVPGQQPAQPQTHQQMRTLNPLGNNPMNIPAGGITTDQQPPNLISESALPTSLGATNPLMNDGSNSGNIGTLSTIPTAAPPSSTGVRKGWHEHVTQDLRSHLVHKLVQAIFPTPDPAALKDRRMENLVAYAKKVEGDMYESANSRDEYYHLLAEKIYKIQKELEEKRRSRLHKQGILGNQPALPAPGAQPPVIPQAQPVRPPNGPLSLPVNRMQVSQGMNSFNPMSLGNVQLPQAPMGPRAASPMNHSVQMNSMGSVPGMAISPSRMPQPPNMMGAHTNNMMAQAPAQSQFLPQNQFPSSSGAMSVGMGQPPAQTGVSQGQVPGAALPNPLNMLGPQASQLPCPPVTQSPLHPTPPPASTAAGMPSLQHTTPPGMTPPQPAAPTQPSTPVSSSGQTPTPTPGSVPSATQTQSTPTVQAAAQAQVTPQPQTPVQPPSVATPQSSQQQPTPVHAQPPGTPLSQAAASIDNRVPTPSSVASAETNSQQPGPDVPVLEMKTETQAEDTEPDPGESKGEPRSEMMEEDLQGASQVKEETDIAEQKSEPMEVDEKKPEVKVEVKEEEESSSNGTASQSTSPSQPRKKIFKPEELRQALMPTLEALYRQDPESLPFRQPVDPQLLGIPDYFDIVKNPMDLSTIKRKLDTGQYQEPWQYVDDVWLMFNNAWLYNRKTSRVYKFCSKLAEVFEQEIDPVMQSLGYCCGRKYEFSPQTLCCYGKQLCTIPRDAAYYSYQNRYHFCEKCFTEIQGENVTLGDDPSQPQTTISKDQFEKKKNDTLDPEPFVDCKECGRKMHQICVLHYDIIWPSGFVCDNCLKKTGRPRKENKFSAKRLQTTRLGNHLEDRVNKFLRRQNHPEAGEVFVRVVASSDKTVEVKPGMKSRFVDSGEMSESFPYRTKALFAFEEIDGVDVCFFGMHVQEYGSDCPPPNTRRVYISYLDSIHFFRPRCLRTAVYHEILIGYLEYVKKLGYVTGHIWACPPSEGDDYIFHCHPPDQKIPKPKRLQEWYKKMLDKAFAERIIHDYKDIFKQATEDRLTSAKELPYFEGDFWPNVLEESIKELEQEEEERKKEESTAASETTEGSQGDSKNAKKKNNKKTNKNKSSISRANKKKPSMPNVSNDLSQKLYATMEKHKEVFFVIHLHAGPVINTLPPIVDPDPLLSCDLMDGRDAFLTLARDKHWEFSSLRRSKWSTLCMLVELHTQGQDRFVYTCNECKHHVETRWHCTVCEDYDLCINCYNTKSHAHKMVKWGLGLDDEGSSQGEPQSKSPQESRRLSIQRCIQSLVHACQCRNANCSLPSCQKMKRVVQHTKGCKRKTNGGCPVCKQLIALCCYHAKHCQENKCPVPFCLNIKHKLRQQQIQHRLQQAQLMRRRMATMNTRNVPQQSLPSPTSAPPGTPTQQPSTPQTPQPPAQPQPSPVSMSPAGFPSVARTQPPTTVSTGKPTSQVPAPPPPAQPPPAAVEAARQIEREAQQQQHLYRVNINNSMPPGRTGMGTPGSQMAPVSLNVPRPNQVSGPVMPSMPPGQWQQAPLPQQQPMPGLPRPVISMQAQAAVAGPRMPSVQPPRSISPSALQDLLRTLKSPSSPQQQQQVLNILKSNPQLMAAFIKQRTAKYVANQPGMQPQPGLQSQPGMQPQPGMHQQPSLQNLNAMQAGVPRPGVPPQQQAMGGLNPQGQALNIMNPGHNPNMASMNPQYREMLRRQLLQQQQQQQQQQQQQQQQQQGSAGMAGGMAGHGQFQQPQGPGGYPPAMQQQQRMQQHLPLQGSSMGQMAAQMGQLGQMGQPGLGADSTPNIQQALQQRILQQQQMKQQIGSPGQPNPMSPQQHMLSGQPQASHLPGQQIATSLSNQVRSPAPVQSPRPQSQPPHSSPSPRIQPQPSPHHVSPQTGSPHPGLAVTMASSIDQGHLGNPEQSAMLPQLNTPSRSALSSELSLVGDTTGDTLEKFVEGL

[13] = target: Histone acetyltransferase KAT5 (Homo sapiens, UniProt Q92993); test: Inhibition of TIP60 (unknown origin) biotinylated H4 (1 to 25)-GSGSK peptide as substrate incubated for 1 hr in presence of acetyl-coA by AlphaLISA assay
Chain of Histone acetyltransferase KAT5 (Q92993 whole entry): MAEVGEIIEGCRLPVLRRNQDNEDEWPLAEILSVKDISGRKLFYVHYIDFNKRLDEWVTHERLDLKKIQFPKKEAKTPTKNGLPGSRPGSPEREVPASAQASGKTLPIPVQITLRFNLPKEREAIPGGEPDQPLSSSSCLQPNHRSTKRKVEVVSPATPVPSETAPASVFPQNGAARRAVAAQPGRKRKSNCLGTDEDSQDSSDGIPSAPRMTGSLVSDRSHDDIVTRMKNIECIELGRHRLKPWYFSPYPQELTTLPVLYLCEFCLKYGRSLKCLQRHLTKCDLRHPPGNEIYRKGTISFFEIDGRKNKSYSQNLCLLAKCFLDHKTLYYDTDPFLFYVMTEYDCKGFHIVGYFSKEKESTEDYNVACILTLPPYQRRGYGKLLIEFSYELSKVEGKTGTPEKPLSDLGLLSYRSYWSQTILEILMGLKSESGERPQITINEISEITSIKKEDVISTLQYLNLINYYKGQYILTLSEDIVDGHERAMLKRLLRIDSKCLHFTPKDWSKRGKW

[14] = target: Histone acetyltransferase KAT7 (Homo sapiens, UniProt O95251); test: Inhibition of MYST2 (unknown origin) biotinylated H4 (1 to 25)-GSGSK peptide as substrate incubated for 1 hr in presence of acetyl-coA by AlphaLISA assay
[15] = target: Histone acetyltransferase KAT6B (Homo sapiens, UniProt Q8WYB5); test: Inhibition of MYST4 (unknown origin) biotinylated H4 (1 to 25)-GSGSK peptide as substrate incubated for 1 hr in presence of acetyl-coA by AlphaLISA assay
[16] = target: Histone acetyltransferase KAT2B (Homo sapiens, UniProt Q92831); test: Inhibition of PCAF (unknown origin) biotinylated H3 (1 to […])-GGK peptide as substrate incubated for 1 hr in presence of acetyl-coA by AlphaLISA assay
Chain of Histone acetyltransferase KAT2B (Q92831 whole entry): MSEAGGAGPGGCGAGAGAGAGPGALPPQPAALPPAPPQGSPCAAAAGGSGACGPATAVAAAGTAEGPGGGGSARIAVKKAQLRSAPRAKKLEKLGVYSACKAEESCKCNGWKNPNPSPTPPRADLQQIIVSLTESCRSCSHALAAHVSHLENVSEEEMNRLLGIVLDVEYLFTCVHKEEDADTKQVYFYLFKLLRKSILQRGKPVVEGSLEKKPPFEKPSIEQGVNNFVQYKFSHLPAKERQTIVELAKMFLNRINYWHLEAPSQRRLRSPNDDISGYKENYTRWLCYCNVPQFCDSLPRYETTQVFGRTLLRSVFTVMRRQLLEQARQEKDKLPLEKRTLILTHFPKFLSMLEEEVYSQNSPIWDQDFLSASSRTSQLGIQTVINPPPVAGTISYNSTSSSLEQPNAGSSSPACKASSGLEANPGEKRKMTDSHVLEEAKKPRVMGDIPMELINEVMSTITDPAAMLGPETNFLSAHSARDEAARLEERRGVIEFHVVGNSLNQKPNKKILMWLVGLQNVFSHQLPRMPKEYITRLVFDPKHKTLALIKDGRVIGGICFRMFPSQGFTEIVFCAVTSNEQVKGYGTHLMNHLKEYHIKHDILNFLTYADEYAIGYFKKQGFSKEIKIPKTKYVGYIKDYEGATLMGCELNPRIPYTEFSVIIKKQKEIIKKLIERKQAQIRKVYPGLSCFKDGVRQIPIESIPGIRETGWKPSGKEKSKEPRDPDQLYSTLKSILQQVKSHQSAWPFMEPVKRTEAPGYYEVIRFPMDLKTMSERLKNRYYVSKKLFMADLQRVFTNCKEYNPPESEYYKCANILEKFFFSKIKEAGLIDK

[17] = target: Histone acetyltransferase KAT2A (Homo sapiens, UniProt Q92830); test: Inhibition of GCN5 (unknown origin) biotinylated H3 (1 to […])-GGK peptide as substrate incubated for 1 hr in presence of acetyl-coA by AlphaLISA assay
Chain of Histone acetyltransferase KAT2A (Q92830 whole entry): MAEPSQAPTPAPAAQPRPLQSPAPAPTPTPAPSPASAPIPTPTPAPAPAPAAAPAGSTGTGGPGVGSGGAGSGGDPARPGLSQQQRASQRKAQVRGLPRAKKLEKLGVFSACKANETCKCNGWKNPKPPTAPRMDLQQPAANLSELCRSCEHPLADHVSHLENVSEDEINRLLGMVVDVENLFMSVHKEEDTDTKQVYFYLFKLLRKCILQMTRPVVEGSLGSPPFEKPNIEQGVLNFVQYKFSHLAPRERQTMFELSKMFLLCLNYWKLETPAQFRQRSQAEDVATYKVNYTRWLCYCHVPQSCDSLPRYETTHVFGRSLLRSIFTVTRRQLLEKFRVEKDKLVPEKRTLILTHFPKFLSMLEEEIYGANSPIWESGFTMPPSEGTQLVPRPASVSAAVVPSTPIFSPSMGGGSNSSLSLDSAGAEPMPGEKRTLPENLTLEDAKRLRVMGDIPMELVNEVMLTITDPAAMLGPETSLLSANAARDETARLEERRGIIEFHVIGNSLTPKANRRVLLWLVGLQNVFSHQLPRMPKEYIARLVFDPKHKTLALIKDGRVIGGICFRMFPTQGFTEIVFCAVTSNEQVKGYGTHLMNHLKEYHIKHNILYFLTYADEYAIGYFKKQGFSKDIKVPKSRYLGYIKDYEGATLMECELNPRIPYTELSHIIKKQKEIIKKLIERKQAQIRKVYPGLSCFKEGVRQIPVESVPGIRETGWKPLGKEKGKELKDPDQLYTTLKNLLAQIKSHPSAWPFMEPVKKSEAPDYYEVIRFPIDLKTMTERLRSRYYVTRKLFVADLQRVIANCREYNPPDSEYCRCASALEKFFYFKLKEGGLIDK

VCaP [18] = test: Antiproliferative activity against AR-positive human VCaP cells assessed as cell growth inhibition incubated for 7 days by CellTiter-Glo assay; assay type: functional; conditions: 168 h, time 7 day
CWR22R = test: Antiproliferative activity against AR-positive human 22Rv1 cells assessed as cell growth inhibition incubated for 7 days by CellTiter-Glo assay; assay type: functional; conditions: 22Rv1, 168 h, time 7 day
LNCaP [19] = test: Antiproliferative activity against AR-positive human LNCaP cells assessed as cell growth inhibition incubated for 7 days by CellTiter-Glo assay; assay type: functional; conditions: 168 h, time 7 day
PC-3 = test: Antiproliferative activity against AR-negative human PC-3 cells assessed as cell growth inhibition incubated for 7 days by CellTiter-Glo assay; assay type: functional; conditions: PC-3, 168 h, time 7 day
[20] = Toxicity in castrated NSG mouse xenografted with human VCaP cells assessed as body weight loss at 0.3 to 3 mg/kg,po qd for 33 days consecutively; assay type: organism-based; conditions: in vivo, 792 h, dose 0.3-3 mg/kg, time 33 day
VCaP [21] = test: Inhibition of H3K18 acetylation in AR-positive human VCaP cells at 3.9 to 1000 nM incubated for 72 hrs by Western blot analysis; assay type: functional, cell-based; conditions: dose 3.9-1000 nM
VCaP [22] = test: Inhibition of H3K27 acetylation in AR-positive human VCaP cells at 3.9 to 1000 nM incubated for 72 hrs by Western blot analysis; assay type: functional, cell-based; conditions: dose 3.9-1000 nM
VCaP [23] = test: Downregulation of PSA expression in AR-positive human VCaP cells at 3.9 to 1000 nM incubated for 72 hrs by Western blot analysis; assay type: functional, cell-based; conditions: dose 3.9-1000 nM
LNCaP [24] = test: Inhibition of H3K18 acetylation in AR-positive human LNCaP cells at 3.9 to 1000 nM incubated for 72 hrs by Western blot analysis; assay type: functional, cell-based; conditions: dose 3.9-1000 nM
LNCaP [25] = test: Inhibition of H3K27 acetylation in AR-positive human LNCaP cells at 3.9 to 1000 nM incubated for 72 hrs by Western blot analysis; assay type: functional, cell-based; conditions: dose 3.9-1000 nM
LNCaP [26] = test: Downregulation of PSA expression in AR-positive human LNCaP cells at 3.9 to 1000 nM incubated for 72 hrs by Western blot analysis; assay type: functional, cell-based; conditions: dose 3.9-1000 nM
VCaP [27] = test: Antitumor activity against human VCaP cells xenografted in castrated NSG mouse assessed as tumor growth inhibition at 0.3 mg/kg,po qd for 33 days consecutively; assay type: functional; conditions: 792 h, time 33 day, read-out: TGI
VCaP [28] = test: Antitumor activity against human VCaP cells xenografted in castrated NSG mouse assessed as tumor growth inhibition at 1 mg/kg,po qd for 33 days consecutively; assay type: functional; conditions: 792 h, time 33 day, read-out: TGI
VCaP [29] = test: Antitumor activity against human VCaP cells xenografted in castrated NSG mouse assessed as tumor growth inhibition at 3 mg/kg,po qd for 33 days consecutively; assay type: functional; conditions: 792 h, time 33 day, read-out: TGI
VCaP [30] = test: Antitumor activity against human VCaP cells xenografted in castrated NSG mouse assessed as decrease in plasma PSA expression at 0.3 to 3 mg/kg,po qd for 33 days consecutively and measured after 6 hrs by ELISA; assay type: functional, organism-based; conditions: dose 0.3-3 mg/kg, time 33.0 day

For COc1ccc(C2(C(=O)N3C[C@H](F)C[C@@H]3C(=O)Nc3ccc4[nH]ncc4n3)CCC(F)(F)CC2)cc1, the Activity [1] was “Non-Toxic”, the IC50 [2] was 54 nM and the logD at 0.5 h [3] was 3. The “intrinsic clearance (CLint)” value [4] was 50 µL/min/mg, the intrinsic clearance [5] was 50 µL/min/mg and the AUC [6] was 130 µM·h. For the same compound, the fAUC [7] was 5.33 µM·h, the Cmax [8] was 34 µM and the half-life [9] was 2.4 h. It also gave an F [10] of 21%, a Vd [11] of 0.14 L/kg and a CL free [12] of 39 mL/min/kg. It also gave an IC50 (CREB-binding protein) of 1 nM, an IC50 [13] greater than 50000 nM and an IC50 [14] greater than 50000 nM. For the same compound, the IC50 [15] was greater than 50000 nM, the IC50 [16] was greater than 50000 nM and the IC50 [17] was greater than 50000 nM. It also gave a GI50 (VCaP [18]) of 0.6 nM, a GI50 (CWR22R) of 6.5 nM and a GI50 (LNCaP [19]) of 3.4 nM. For the same compound, the GI50 (PC-3) was 287 nM, the Activity [20] was “Non-Toxic” and the inhibition (VCaP [21]) was “Dose-Dependent Effect”. The inhibition (VCaP [22]) was “Dose-Dependent Effect”, the Activity (VCaP [23]) was “Dose-Dependent Effect” and the inhibition (LNCaP [24]) was “Dose-Dependent Effect”. For the same compound, the inhibition (LNCaP [25]) was “Dose-Dependent Effect”, the Activity (LNCaP [26]) was “Dose-Dependent Effect” and the inhibition in vivo at 0.3 mg/kg (VCaP [27]) was 39%. The inhibition in vivo at 1 mg/kg (VCaP [28]) was 74%, the inhibition in vivo at 3 mg/kg (VCaP [29]) was 109% and the Activity (VCaP [30]) was “Dose-Dependent Effect”.
